Test results: ChEMBL document CHEMBL1201862, “PubChem BioAssay data set” (2004)
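Cells were grown in 96-well plates and exposed to each compound for 48 hours at five concentrations; endpoints were interpolated linearly between bracketing concentrations, or set to the highest concentration if not reached. GI50 is the concentration that inhibits growth by half.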 Activity calls are given as the source filed them. Rule as the data show it: active = GI50 up to about 1.1 µM and inactive = higher.

Key:
Test in all cases: DTP human tumour cell line panel, 48 h
[1] = test system: 786-0
[2] = test system: A498
[3] = test system: A549
[4] = test system: ACHN
[5] = test system: BT-549
[6] = test system: CAKI-1
[7] = test system: CCRF-CEM
[8] = test system: COLO 205
[9] = test system: DU-145
[10] = test system: EKVX
[11] = test system: HCC 2998
[12] = test system: HCT-116
[13] = test system: HCT-15
[14] = test system: HOP-62
[15] = test system: HOP-92
[16] = test system: HT-29
[17] = test system: Hs-578T
[18] = test system: IGROV-1
[19] = test system: K562
[20] = test system: KM12
[21] = test system: LOX IMVI
[22] = test system: M14
[23] = test system: MCF7
[24] = test system: MDA-MB-231
[25] = test system: MDA-MB-435
[26] = test system: MDA-N
[27] = test system: MOLT-4
[28] = test system: Malme-3M
[29] = test system: NCI-H226
[30] = test system: NCI-H23
[31] = test system: NCI-H460
[32] = test system: NCI-H522
[33] = test system: NCI/ADR-RES
[34] = test system: OVCAR-3
[35] = test system: OVCAR-4
[36] = test system: OVCAR-5
[37] = test system: OVCAR-8
[38] = test system: PC-3
[39] = test system: RXF 393
[40] = test system: SF-268
[41] = test system: SF-295
[42] = test system: SF-539
[43] = test system: SK-MEL-28
[44] = test system: SK-MEL-2
[45] = test system: SK-MEL-5
[46] = test system: SK-OV-3
[47] = test system: SN12C
[48] = test system: SNB-19
[49] = test system: SNB-75
[50] = test system: SR
[51] = test system: SW-620
[52] = test system: T47D
[53] = test system: TK-10
[54] = test system: U-251
[55] = test system: UACC-257
[56] = test system: UACC-62
[57] = test system: UO-31
[58] = test system: HL-60
[59] = test system: RPMI-8226

CC(C)=CCC/C(C)=C/CC/C(C)=C/CC/C(C)=C/CC/C(C)=C\CC/C(C)=C/CC/C(C)=C/CC/C(C)=C/Cc1cc(O)ccc1O
GI50 [1]: 1.45 µM (inactive)
GI50 [2]: 0.993 µM (active)
GI50 [3]: 1.33 µM (inactive)
GI50 [4]: 4.75 µM (inactive)
GI50 [5]: 1.98 µM (inactive)
GI50 [6]: 0.239 µM (active)
GI50 [7]: 0.955 µM (active)
GI50 [8]: 0.387 µM (active)
GI50 [9]: 19.4 µM (inactive)
GI50 [10]: 2.31 µM (inactive)
GI50 [11]: 4.99 µM (inactive)
GI50 [12]: 0.561 µM (active)
GI50 [13]: 1.69 µM
GI50 [14]: 6.03 µM (inactive)
GI50 [15]: 8.49 µM (inactive)
GI50 [16]: 1.11 µM (active)
GI50 [17]: 3.33 µM (inactive)
GI50 [18]: 0.323 µM (active)
GI50 [19]: 3.18 µM (inactive)
GI50 [20]: 0.632 µM (active)
GI50 [21]: 0.966 µM (active)
GI50 [22]: 0.213 µM (active)
GI50 [23]: 0.126 µM (active)
GI50 [24]: 20.6 µM (inactive)
GI50 [25]: 0.39 µM (active)
GI50 [26]: 0.236 µM (active)
GI50 [27]: 1.93 µM (inactive)
GI50 [28]: 0.292 µM (active)
GI50 [29]: 2.02 µM (inactive)
GI50 [30]: 0.361 µM (active)
GI50 [31]: 2.57 µM (inactive)
GI50 [32]: 0.505 µM (active)
GI50 [33]: 0.459 µM (active)
GI50 [34]: 0.573 µM (active)
GI50 [35]: 1.32 µM (inactive)
GI50 [36]: 9.27 µM (inactive)
GI50 [37]: 1.15 µM (inactive)
GI50 [38]: 0.689 µM (active)
GI50 [39]: 0.344 µM (active)
GI50 [40]: 2.01 µM (inactive)
GI50 [41]: 1.45 µM (inactive)
GI50 [42]: 1.33 µM (inactive)
GI50 [43]: 0.424 µM (active)
GI50 [44]: 0.682 µM (active)
GI50 [45]: 0.294 µM (active)
GI50 [46]: 4.06 µM (inactive)
GI50 [47]: 5.31 µM (inactive)
GI50 [48]: 10 µM (inactive)
GI50 [49]: 3.41 µM (inactive)
GI50 [50]: 0.43 µM (active)
GI50 [51]: 2.28 µM (inactive)
GI50 [52]: 1.24 µM (inactive)
GI50 [53]: 1.41 µM (inactive)
GI50 [54]: 1.85 µM (inactive)
GI50 [55]: 0.387 µM (active)
GI50 [56]: 0.157 µM (active)
GI50 [57]: 1.72 µM (inactive)

O=C(Cc1ccccc1)N/N=C1\C(=O)Nc2ccccc21
GI50 [1]: 80.5 µM (inactive)
GI50 [2]: 0.229 µM (active)
GI50 [3]: > 100 µM (inactive)
GI50 [4]: > 100 µM (inactive)
GI50 [5]: > 100 µM (inactive)
GI50 [7]: > 100 µM (inactive)
GI50 [8]: > 100 µM (inactive)
GI50 [9]: > 100 µM (inactive)
GI50 [10]: 72.1 µM (inactive)
GI50 [11]: > 100 µM (inactive)
GI50 [12]: > 100 µM (inactive)
GI50 [13]: 62.8 µM
GI50 [14]: > 100 µM (inactive)
GI50 [16]: > 100 µM (inactive)
GI50 [17]: 65.3 µM (inactive)
GI50 [18]: > 100 µM (inactive)
GI50 [19]: > 100 µM (inactive)
GI50 [20]: > 100 µM (inactive)
GI50 [22]: > 100 µM (inactive)
GI50 [23]: 49.8 µM (inactive)
GI50 [24]: 18.8 µM (inactive)
GI50 [25]: > 100 µM (inactive)
GI50 [26]: > 100 µM (inactive)
GI50 [27]: > 100 µM (inactive)
GI50 [28]: > 100 µM (inactive)
GI50 [29]: 71.9 µM (inactive)
GI50 [30]: 95.5 µM (inactive)
GI50 [31]: > 100 µM (inactive)
GI50 [32]: 48.1 µM (inactive)
GI50 [33]: 52.4 µM (inactive)
GI50 [34]: > 100 µM (inactive)
GI50 [35]: > 100 µM (inactive)
GI50 [36]: > 100 µM (inactive)
GI50 [37]: > 100 µM (inactive)
GI50 [38]: 70.5 µM (inactive)
GI50 [39]: > 100 µM (inactive)
GI50 [40]: 31.6 µM (inactive)
GI50 [41]: 25.8 µM (inactive)
GI50 [42]: 23.1 µM (inactive)
GI50 [44]: > 100 µM (inactive)
GI50 [45]: 95.9 µM (inactive)
GI50 [46]: > 100 µM (inactive)
GI50 [47]: 48.5 µM (inactive)
GI50 [48]: > 100 µM (inactive)
GI50 [49]: 37.2 µM (inactive)
GI50 [50]: > 100 µM (inactive)
GI50 [52]: 63.2 µM (inactive)
GI50 [53]: > 100 µM (inactive)
GI50 [54]: 61.1 µM (inactive)
GI50 [55]: > 100 µM (inactive)
GI50 [56]: > 100 µM (inactive)
GI50 [57]: 48.2 µM (inactive)

Clc1ccc(Cc2nc3cc(CCN4CCN(c5ccccc5)CC4)ccc3[nH]2)cc1
GI50 [1]: 6.87 µM (inactive)
GI50 [2]: 14.4 µM (inactive)
GI50 [3]: 13.4 µM (inactive)
GI50 [4]: 19.5 µM (inactive)
GI50 [5]: 16.4 µM (inactive)
GI50 [6]: 14.4 µM (inactive)
GI50 [7]: > 100 µM (inactive)
GI50 [8]: 4.06 µM (inactive)
GI50 [9]: 17.4 µM (inactive)
GI50 [10]: 22 µM (inactive)
GI50 [12]: 12 µM (inactive)
GI50 [13]: 15 µM
GI50 [58]: 12.6 µM (inactive)
GI50 [14]: 15.4 µM (inactive)
GI50 [15]: 21 µM (inactive)
GI50 [16]: 5.58 µM (inactive)
GI50 [17]: 20.3 µM (inactive)
GI50 [18]: 27.5 µM (inactive)
GI50 [19]: 5.93 µM (inactive)
GI50 [20]: 11.3 µM (inactive)
GI50 [21]: 12.6 µM (inactive)
GI50 [22]: 5.73 µM (inactive)
GI50 [23]: 16 µM (inactive)
GI50 [24]: 13 µM (inactive)
GI50 [25]: 12.9 µM (inactive)
GI50 [26]: 15.3 µM (inactive)
GI50 [27]: 6.62 µM (inactive)
GI50 [28]: 15.7 µM (inactive)
GI50 [29]: 22.5 µM (inactive)
GI50 [30]: 13.8 µM (inactive)
GI50 [31]: 12.9 µM (inactive)
GI50 [32]: 14.1 µM (inactive)
GI50 [33]: 19.1 µM (inactive)
GI50 [34]: 13 µM (inactive)
GI50 [35]: 10.3 µM (inactive)
GI50 [36]: 26.1 µM (inactive)
GI50 [37]: 17 µM (inactive)
GI50 [38]: 18.6 µM (inactive)
GI50 [59]: 4.6 µM (inactive)
GI50 [39]: 5.24 µM (inactive)
GI50 [40]: 25.5 µM (inactive)
GI50 [41]: 12.3 µM (inactive)
GI50 [42]: 17.3 µM (inactive)
GI50 [43]: 19.1 µM (inactive)
GI50 [44]: 15 µM (inactive)
GI50 [45]: 12.6 µM (inactive)
GI50 [46]: 17.9 µM (inactive)
GI50 [47]: 16 µM (inactive)
GI50 [48]: 20.7 µM (inactive)
GI50 [49]: 12.8 µM (inactive)
GI50 [50]: 8.02 µM (inactive)
GI50 [51]: > 100 µM (inactive)
GI50 [52]: 7.01 µM (inactive)
GI50 [53]: 12.8 µM (inactive)
GI50 [54]: 13 µM (inactive)
GI50 [55]: 5.42 µM (inactive)
GI50 [56]: 16 µM (inactive)
GI50 [57]: 8.07 µM (inactive)
